Assay results: ChEMBL document CHEMBL1138313, “Cyclization of the acyl glucuronide metabolite of a neutral endopeptidase inhibitor to an electrophilic glutarimide: synthesis, reactivity, and mechanistic analysis” (J Med Chem, 2007)

Columns and labels:
Type in all cases: ADME, organism-based
Rattus norvegicus = test: Biodistribution in Wistar rat bile at 15 umol/kg, iv; details: in vivo
[1] = Biodistribution in Wistar rat bile at 50 umol/kg, iv after 5 hrs; details: read-out: Drug uptake
[2] = Biodistribution in Wistar rat bile at 50 umol/kg, iv after 1 hr; details: read-out: Drug uptake
[3] = Biodistribution in Wistar rat bile assessed as drug elimination at 15 umol/kg, iv after 1 hr; details: read-out: Drug uptake
[4] = Biodistribution in Wistar rat bile assessed as drug elimination at 15 umol/kg, iv after 5 hrs; details: read-out: Drug uptake
Plasma = test: Biodistribution in Wistar rat plasma per mL at 15 umol/kg, iv after 5 hrs; details: in vivo
[5] = Biodistribution in Wistar rat urine at 15 umol/kg, iv after 5 hrs; details: read-out: Drug uptake

Drug uptake (Rattus norvegicus) [%] | dose excreted at 5 h [1] [%] | dose excreted at 1 h [2] [%] | dose excreted at 1 h [3] [%] | dose excreted at 5 h [4] [%] | Drug uptake (Plasma) [%ID] | dose excreted at 5 h [5] [%] | Compound
6 | 11 | 4.5 |  |  |  |  | CCC[C@@H]1CC2(CCCC2)C(=O)N(c2nnc(CC)s2)C1=O
 |  |  | 28.7 | 75.1 | 0.3 | 4.9 | CCC[C@H](CC1(C(=O)Nc2nn[14c](CC)s2)CCCC1)C(=O)O
